Here are results for 48 compounds from patent publication US9238039B2, “Pyrazolo[1,5-A]pyrimidines for antiviral treatment” (Gilead Sciences, Inc., priority 2010, dated 2016).

In the experiment the test system is RSV strain A2. The experiment in a line: RSV antiviral cytoprotection assay in Hep2 cells (96-well and 384-well format, Cell TiterGlo read-out). The experiment is classed as cell-based, Respiratory Syncytial Virus (RSV). The note with it: human respiratory syncytial virus; for inhibition at 0.5 µM: HEp-2, 0.5 uM; for inhibition at 0.5 µM / inhibition at 1 µM: RSV-induced cytopathic effect in Hep2 cells, calculated from fitted dose response curve, normalized to 0% and 100%; for EC50: HEp-2, RSV-induced cytopathic effects, Hep2 cells, class symbols; for inhibition at 1 µM: HEp-2, 1 uM.

For orientation: inhibition means the relative decrease from the control value, in per cent. One may read the EC50 as the concentration at which the effect is half-maximal.

The structures appear in SMILES notation.

With `CS(=O)(=O)Nc1ccc(Cl)cc1C(=O)N1CCCC[C@H]1c1cc2nc(N3CCC3)cc(N3CCN(CCF)CC3)n2n1` [Compound 166], the inhibition at 0.5 µM was 100% and the EC50 was in the range of 0.1 to 100 nM.
Regarding `Cc1cn2nc([C@@H]3CCCCN3C(=O)c3cccc(C)c3Cl)cc2nc1N1CC[C@H](N)C1` [Compound 334], the inhibition at 0.5 µM was 100% and the EC50 lay within 0.1 to 100 nM.
On the same counts, the results for `Cc1cn2nc([C@@H]3CCCCN3C(=O)c3cc(Cl)ccc3Cl)cc2nc1N1CC[C@H](N)C1` [Compound 391] are 99% and 0.1 to 100 nM.
On the same counts, the results for `Cc1cc(C(=O)N2CCCC[C@H]2c2cc3nc(N4CC[C@H](N)C4)c(C)cn3n2)no1` [Compound 264] are 53% and 101 to 1000 nM.
On the same counts, the results for `Cc1cn2nc([C@@H]3CCCCN3C(=O)c3cccc4c3OCC4)cc2nc1N1CC[C@H](N)C1` [Compound 317] are 100% and 0.1 to 100 nM.
Turning to `Cc1cn2nc([C@@H]3CCCCN3C(=O)c3cccc(Cl)n3)cc2nc1N1CC[C@H](N)C1` [Compound 305], the inhibition at 0.5 µM was 100% and the EC50 was in the range of 0.1 to 100 nM.
Regarding `Cc1cn2nc([C@@H]3CCCCN3C(=O)c3cc(-c4cccnc4)n[nH]3)cc2nc1N1CC[C@H](N)C1` [Compound 384], the inhibition at 0.5 µM is 48% and the EC50 lay within 101 to 1000 nM.
Regarding `Cc1cc(C2CC2)nc2cc([C@@H]3CCCCN3C(=O)c3cc(F)cc(Br)c3NS(C)(=O)=O)nn12` [Compound 121], the inhibition at 0.5 µM is 97% and the EC50 was 0.1 to 100 nM.
For `COc1ccc(C(=O)N2CCCC[C@H]2c2cc3nc(N4CC[C@H](N)C4)c(C)cn3n2)cc1Cl` [Compound 375], the inhibition at 0.5 µM is 99% and the EC50 fell in the range of 0.1 to 100 nM.
On the same counts, the results for `CC(=O)Nc1ccc(Cl)cc1C(=O)N1CCCC[C@H]1c1cc2nc(N3CC(N)C3)c(C)cn2n1` [Compound 248] are 100% and 0.1 to 100 nM.
As to `CS(=O)(=O)Nc1ccc(Br)cc1C(=O)N1CCCC[C@H]1c1cc2nc(N3CCC3)cc(N3CCOCC3)n2n1` [Compound 79], the inhibition at 0.5 µM is 100% and the concentration giving a half-maximal response (EC50) was in the range of 0.1 to 100 nM.
On to `CS(=O)(=O)Nc1ccc(Cl)cc1C(=O)N1CCCC[C@H]1c1cc2nc(N3CCC3)cc(N3C[C@H]4C[C@@H]3CN4)n2n1` [Compound 147], for which the inhibition at 0.5 µM was 98% and the concentration giving a half-maximal response (EC50) fell in the range of 0.1 to 100 nM.
Consider `Cc1cn2nc([C@@H]3CCCCN3C(=O)c3ccc(-c4ccccc4)cc3)cc2nc1N1CC[C@H](N)C1` [Compound 406], for which the inhibition at 0.5 µM is 98% and the EC50 lay in the range of 0.1 to 100 nM.
As to `CS(=O)(=O)Nc1ccc(Cl)cc1C(=O)N1CCCC[C@H]1c1cc2nc(N3CC(O)C3)ccn2n1` [Compound 49], the inhibition at 0.5 µM is 98% and the concentration for a half-maximal effect (EC50) fell in the range of 0.1 to 100 nM.
In the case of `Cc1ccc(NS(C)(=O)=O)c(C(=O)N2CCCC[C@H]2c2cc3nc(N4CC(N)C4)c(C)cn3n2)c1` [Compound 191], the inhibition at 0.5 µM was 100% and the EC50 was in the range of 0.1 to 100 nM.
`Cc1cn2nc([C@@H]3CCCCN3C(=O)c3csc4c3CCCC4)cc2nc1N1CC[C@H](N)C1` [Compound 369]: the inhibition at 0.5 µM was 91% and the EC50 was 0.1 to 100 nM.
On to `Cc1cc(C2CC2)nc2cc([C@@H]3CCCCN3C(=O)c3cc(N)ccc3NS(C)(=O)=O)nn12` [Compound 114], for which the inhibition at 0.5 µM is 100% and the concentration for a half-maximal effect (EC50) was 0.1 to 100 nM.
In the case of `Cc1cn2nc([C@@H]3CCCCN3C(=O)c3nc4ccccn4c3F)cc2nc1N1CC[C@H](N)C1` [Compound 363], the inhibition at 0.5 µM is 99% and the EC50 lay within 0.1 to 100 nM.
In the case of `CS(=O)(=O)Nc1ccc(Cl)cc1C(=O)N1CCCC[C@H]1c1cc2nc(N3CCC3)cc(N3CCC(N)CC3)n2n1` [Compound 233], the inhibition at 0.5 µM was 100% and the EC50 was in the range of 0.1 to 100 nM.
For the compound `Cc1cn2nc([C@@H]3CCCCN3C(=O)c3cc(Cl)ccc3NC(=O)OC(C)C)cc2nc1N1CC[C@H](N)C1` [Compound 249], the inhibition at 0.5 µM is 86% and the EC50 was in the range of 0.1 to 100 nM.
In the case of `Cc1cn2nc([C@@H]3CCCCN3C(=O)c3cc(Cl)ccc3NS(C)(=O)=O)cc2nc1N1CCCC(O)C1` (some centres unmarked) [Compound 217], the inhibition at 0.5 µM was 89% and the EC50 fell in the range of 101 to 1000 nM.
On to `Cc1cn2nc([C@@H]3CCCCN3C(=O)c3scnc3C)cc2nc1N1CC[C@H](N)C1` [Compound 287], for which the concentration giving a half-maximal response (EC50) is 1000 to 10000 nM.
With `Cc1cc(N2CC(O)C2)nc2cc([C@@H]3CCCCN3C(=O)c3cc(Br)ccc3NS(C)(=O)=O)nn12` [Compound 82], the inhibition at 0.5 µM was 100% and the 50% effective concentration (EC50) lay within 0.1 to 100 nM.
Regarding `Cc1cn2nc([C@@H]3CCCCN3C(=O)c3cc(Cl)ccc3NS(C)(=O)=O)cc2nc1N1CC[C@@H](C)C1` [Compound 204], the inhibition at 0.5 µM is 98% and the EC50 lay in the range of 0.1 to 100 nM.
On to `Cc1cn2nc([C@@H]3CCCCN3C(=O)c3cc(Cl)ccc3NS(C)(=O)=O)cc2nc1N1CC(C)C1` [Compound 129], for which the inhibition at 0.5 µM is 100% and the concentration giving a half-maximal response (EC50) lay in the range of 0.1 to 100 nM.
On to `Cc1cn2nc([C@@H]3CCCCN3C(=O)c3cncs3)cc2nc1N1CC[C@H](N)C1` [Compound 269], for which the inhibition at 0.5 µM is 90% and the half-maximal effective concentration (EC50) was in the range of 0.1 to 100 nM.
Turning to `Cc1[nH]c2cc([C@@H]3CCCCN3C(=O)c3ccccc3NS(=O)(=O)N3CCOCC3)nn2c(=O)c1C` [Compound 15], the inhibition at 0.5 µM was 30%, the inhibition at 1 µM is 42% and the half-maximal effective concentration (EC50) is 101 to 1000 nM.
Regarding `COc1cccc(C(=O)N2CCCC[C@H]2c2cc3nc(N4CC[C@H](N)C4)c(C)cn3n2)c1` [Compound 295], the inhibition at 0.5 µM is 97% and the half-maximal effective concentration (EC50) is 0.1 to 100 nM.
`Cc1cn2nc([C@@H]3CCCCN3C(=O)c3cc(-c4ccco4)n[nH]3)cc2nc1N1CC[C@H](N)C1` [Compound 360]: the inhibition at 0.5 µM is 66% and the 50% effective concentration (EC50) lay in the range of 101 to 1000 nM.
The like results for `COc1cccc(C(=O)N2CCCC[C@H]2c2cc3nc(N4CC[C@H](N)C4)c(C)cn3n2)c1O` [Compound 325] were, in that order, 98% and 0.1 to 100 nM.
On to `CNC1CCN(c2nc3cc([C@@H]4CCCCN4C(=O)c4cc(Cl)ccc4NS(C)(=O)=O)nn3cc2C)C1` (some centres unmarked) [Compound 78], for which the inhibition at 0.5 µM is 98% and the half-maximal effective concentration (EC50) was in the range of 0.1 to 100 nM.
In the case of `COC(=O)Nc1ccc(Cl)cc1C(=O)N1CCCC[C@H]1c1cc2nc(N3CC[C@H](N)C3)c(C)cn2n1` [Compound 220], the inhibition at 0.5 µM is 100% and the half-maximal effective concentration (EC50) was 0.1 to 100 nM.
On the same counts, the results for `Cc1cn2nc([C@@H]3CCCCN3C(=O)c3cc4ncccn4n3)cc2nc1N1CC[C@H](N)C1` [Compound 315] are 100% and 0.1 to 100 nM.
On to `CS(=O)(=O)Nc1ccc(Cl)cc1C(=O)N1CCCCCC1c1cc2nc(N3CCC3)cc(N3CCOCC3)n2n1` (centres unmarked) [Compound 177], for which the inhibition at 0.5 µM is 99% and the concentration for a half-maximal effect (EC50) was 0.1 to 100 nM.
On to `Cc1cn2nc([C@@H]3CCCCN3C(=O)c3cccc(OC(C)C)c3)cc2nc1N1CC[C@H](N)C1` [Compound 365], for which the inhibition at 0.5 µM was 100% and the EC50 lay within 0.1 to 100 nM.
As to `Cc1cn2nc([C@@H]3CCCCN3C(=O)c3cc(Cl)ccc3NS(C)(=O)=O)cc2nc1N1CC(C)(O)C1` [Compound 96], the inhibition at 0.5 µM was 97% and the EC50 was in the range of 0.1 to 100 nM.
On to `CS(=O)(=O)Nc1ccc(Br)cc1C(=O)N1CCCC[C@H]1c1cc2nc(N3CC(O)C3)cc(N3CCOCC3)n2n1` [Compound 80], for which the inhibition at 0.5 µM was 100% and the EC50 was 0.1 to 100 nM.
As to `CCc1ccc(NS(C)(=O)=O)c(C(=O)N2CCCC[C@H]2c2cc3[nH]c(C)c(C)c(=O)n3n2)c1` [Compound 116], the inhibition at 0.5 µM was 98% and the EC50 is 0.1 to 100 nM.
On the same counts, the results for `CS(=O)(=O)Nc1ccc(Cl)cc1C(=O)N1CCCC[C@H]1c1cc2nc(N3CC(N)C3)cc(N3CCOCC3)n2n1` [Compound 68] are 100% and 0.1 to 100 nM.
In the case of `Cc1cc(C)n2nc(C(=O)N3CCCCC3c3cc4nc(N5CC[C@H](N)C5)c(C)cn4n3)nc2n1` (some centres unmarked) [Compound 397], the inhibition at 0.5 µM was 3% and the EC50 lay in the range of 1000 to 10000 nM.
As for `CCc1c(C)[nH]c2cc([C@@H]3CCCCN3C(=O)c3cc(F)ccc3NS(C)(=O)=O)nn2c1=O` [Compound 28], the inhibition at 0.5 µM is 73%, the inhibition at 1 µM was 95% and the EC50 lay within 101 to 1000 nM.
Consider `Cc1cn2nc([C@@H]3CCCCN3C(=O)c3cc(Cl)ccc3NS(C)(=O)=O)cc2nc1N1CCCCN1` [Compound 141], for which the inhibition at 0.5 µM was 95% and the concentration giving a half-maximal response (EC50) lay within 0.1 to 100 nM.
With `Cc1cn2nc([C@@H]3CCCCN3C(=O)c3cc(F)ccc3Cl)cc2nc1N1CC[C@H](N)C1` [Compound 347], the inhibition at 0.5 µM is 100% and the EC50 was 0.1 to 100 nM.
`Cc1cn2nc([C@@H]3CCCCN3C(=O)c3ccccc3CO)cc2nc1N1CC[C@H](N)C1` [Compound 291]: the inhibition at 0.5 µM was 88% and the EC50 was 0.1 to 100 nM.
Take `Cc1[nH]c2cc([C@@H]3CCCCN3C(=O)c3cc(F)ccc3NS(C)(=O)=O)nn2c(=O)c1F` [Compound 19]: the inhibition at 0.5 µM is 67%, the inhibition at 1 µM was 84% and the EC50 was in the range of 101 to 1000 nM.
Regarding `CC(=O)c1cccc(C(=O)N2CCCC[C@H]2c2cc3nc(N4CC[C@H](N)C4)c(C)cn3n2)c1` [Compound 318], the inhibition at 0.5 µM was 100% and the EC50 was in the range of 0.1 to 100 nM.
Regarding `Cc1cn2nc([C@@H]3CCCCN3C(=O)c3cccc4nnnn34)cc2nc1N1CC[C@H](N)C1` [Compound 316], the inhibition at 0.5 µM is 100% and the concentration for a half-maximal effect (EC50) lay within 0.1 to 100 nM.
As to `Cc1cn2nc([C@@H]3CCCCN3C(=O)c3c4c(nn3C)CCCC4)cc2nc1N1CC[C@H](N)C1` [Compound 367], the inhibition at 0.5 µM is 94% and the EC50 lay in the range of 0.1 to 100 nM.
